From patent US8148556B2, “Method of producing tibolone metabolites by fermentation with Rhizopus stolonifer” (priority 2007, dated 2012) come the findings set out here.

Usually IC50 stands for the concentration at which inhibition is half-maximal. For orientation: melting point means the temperature of the solid-liquid transition.

For data set [1], the system named is α-Glucosidase (E.C.3.2.1.20). Kind of data set: α-Glucosidase enzyme inhibition assay. To be noted: for Active (activity against alpha-glucosidase enzyme): Table 1; for IC50: pH 6.9, 37° C., 0.7 mM PNP-G substrate, NA = inactive compounds. It counts as biochemical. On the procedure: α-Glucosidase Enzyme Inhibition Assay
α-Glucosidase (E.C.3.2.1.20) enzyme inhibition assay has been performed according to the slightly modified method of Matsui et al. α-Glucosidase (E.C.3.2.1.20) from Saccharomyces sp. was purchased from Wako Pure Chemical Industries Ltd. (Wako 076-02841). The inhibition has been measured spectrophotometrically at pH 6.9 and at 37° C. using 0.7 mM p-nitrophenyl α-D glucopyranoside (PNP-G) as a substrate and 250 m units/mL enzyme in 50 mM sodium phosphate buffer containing 100 mM NaCl. […] The increment in absorption at 400 nm due to the hydrolysis of PNP-G by α-glucosidase was monitored continuously with the spectrophotometer (Molecular Devices, USA). The concentrations of the test compounds, which inhibited the hydrolysis of PNP-G by α-glucosidase by 50% (IC50), were determined by monitoring the effect of increasing the concentration of these compounds on the inhibition values. The IC50 values were then calculated using EZ-Fit enzyme kinetics program (Perrella Scientific Inc., Amherst, Mass., U.S.A.).

The next data set has as its target T1, enzyme tyrosinas (Homo sapiens, UniProt P14679).
T1 sequence (P14679 19-529): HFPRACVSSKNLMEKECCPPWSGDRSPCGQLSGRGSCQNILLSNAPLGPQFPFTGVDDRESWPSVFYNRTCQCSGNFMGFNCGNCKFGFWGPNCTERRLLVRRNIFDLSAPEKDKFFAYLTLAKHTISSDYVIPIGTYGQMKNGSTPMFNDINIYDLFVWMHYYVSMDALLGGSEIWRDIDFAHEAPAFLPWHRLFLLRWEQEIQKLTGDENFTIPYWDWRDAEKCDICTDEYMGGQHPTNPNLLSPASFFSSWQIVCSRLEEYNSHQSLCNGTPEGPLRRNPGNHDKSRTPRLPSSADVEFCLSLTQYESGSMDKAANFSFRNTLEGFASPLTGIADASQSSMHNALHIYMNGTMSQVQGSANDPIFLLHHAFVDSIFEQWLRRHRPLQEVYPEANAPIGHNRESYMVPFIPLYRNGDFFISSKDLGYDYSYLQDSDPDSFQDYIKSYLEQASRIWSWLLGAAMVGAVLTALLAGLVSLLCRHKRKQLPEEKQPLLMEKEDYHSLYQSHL
Nature of the data set: inhibitory activity against enzyme tyrosinas. It counts as biochemical.

The structures appear in SMILES notation. “Also recorded” adds a separate entry of the source. Where only a bound is given, the exact number is not on record here.

In the case of `C#C[C@]1(O)CC[C@H]2[C@@H]3[C@H](C)CC4=C(CCC(=O)C4)[C@H]3CC[C@@]21C` [Compound 1, Tibolone], the “Active (activity against alpha-glucosidase enzyme)” value (from here on “Active”) in data set [1] is given as “No”.

On to `C#C[C@]1(O)CC[C@H]2[C@@H]3[C@H](C)CC4=C(CC[C@H](O)C4)[C@H]3CC[C@@]21C` [Compound 2, 3β-hydroxytibolone], for which, in data set [1], the “Active” value is listed as “No”.

Consider `C#C[C@]1(O)CC[C@H]2[C@@H]3[C@H](C)CC4=C(CC[C@@H](O)C4)[C@H]3CC[C@@]21C` [Compound 3, 3α-hydroxytibolone], for which, in data set [1], the “Active” value is listed as “No”.

In the case of `C#CC1(O)CCC2C3C(C)CC4=CC(=O)C=CC4C3CCC21C` (stereo not drawn) [Compound 7, 7α-methyl-17α-ethynl-17β-hydroxy-19-norandrost-1,4-dien-3-one], in data set [1], the “inhibitory activity against α-Glucosidase enzyme (in words)” value was “significant activity”, the “Active” value is recorded as “Yes” and the IC50 came out at 227 ± 0.02 µM.

As to `C#CC1(O)CCC2C3C(C)CC4=CC(=O)CCC4(O)C3CCC21C` (stereo not drawn) [Compound 8, 7α-methyl-17α-ethynl-10β,17β-dihydroxy-19-norandrost-4-en-3-one], in data set [1], the “inhibitory activity against α-Glucosidase enzyme (in words)” value was “pronounced inhibitory activities”, the “Active” value is given as “No” and inhibition was half-maximal at 877 ± 0.03 µM (IC50).

`C#CC1(O)CC(O)C2C3C(C)CC4=C(CCC(=O)C4)C3C(O)CC21C` (stereo not drawn) [Compound 9, 7α-methyl-17α-ethynl-11α,15β,17β-trihydroxy-19-norandrost-5(10)-en-3-one]: the “Active” value in data set [1] is “No”. Further, the “inhibitory activity against enzyme tyrosinas (in words)” value against enzyme tyrosinas was “pronounced inhibitory activity”.

For the compound `C#CC1(O)CC(O)C2C3C(C)C=C4CC(=O)CCC4C3C(O)CC21C` (stereo not drawn) [Compound 10, 7α-methyl-17α-ethynl-11α,15β,17β-trihydroxy-19-norandrost-5-en-3-one], the “Active” value in data set [1] was “No”. The “inhibitory activity against enzyme tyrosinas (in words)” value on enzyme tyrosinas is given as “pronounced inhibitory activity”.

As to `C#CC1(O)CCC2C3C(C)C=C4CC(=O)CCC4C3CCC21C` (stereo not drawn) [Compound 11, 7α-methyl-17α-ethynl-17β-hydroxy-19-norandrost-5-en-3-one], the “Active” value in data set [1] is on record as “No”.

`C#CC1(O)CCC2C3C(C)C(O)C4=CC(=O)CCC4C3CCC21C` (stereo not drawn) [Compound 12, 6β-Hydroxy-Δ^4-tibolone] gave a melting point of 189 to 193 °C. In data set [1], the “inhibitory activity against α-Glucosidase enzyme (in words)” value is “pronounced inhibitory activities; also recorded: pronounced inhibitory activity”, the “Active” value was “Yes” and half-maximal inhibition (IC50) required 653 ± 0.02 µM.

Turning to `C#CC1(O)CCC2C3C(C)C(O)C4=CC(=O)CCC4C3CCC21C` (stereo not drawn) [Compound 13, 6α-Hydroxy-Δ^4-tibolone], the melting point was in the range of 187 to 190 °C. In data set [1], the “inhibitory activity against α-Glucosidase enzyme (in words)” value was “pronounced inhibitory activities; also recorded: pronounced inhibitory activity”, the “Active” value was “Yes” and the IC50 is under 70 µM.

`C#CC1(O)CC(O)C2C3C(C)CC4=CC(=O)CCC4C3CCC21C` (stereo not drawn) [Compound 14, 15α-Hydroxy-Δ^4-tibolone]: in data set [1], the “Active” value is reported as “Yes” and the IC50 is under 70 µM.

With `C#CC1(O)CCC2C3C(C)C(O)C4=CC(=O)C=CC4C3CCC21C` (stereo not drawn) [Compound 15, 7α-methyl-17α-ethynl-6α,17β-dihydroxy-19-norandrost-1,4-dien-3-one], in data set [1], the “inhibitory activity against α-Glucosidase enzyme (in words)” value is “significant activity; also recorded: pronounced inhibitory activity”, the “Active” value is “Yes” and the IC50 was found to be 340 ± 0.02 µM.

Regarding `C#C[C@]1(O)CC[C@H]2[C@@H]3[C@H](C)[C@@H](OC)C4=CC(=O)CC[C@@H]4[C@H]3CC[C@@]21C` [Compound 16, 7α-methyl-17α-ethynl-6β-methoxy-17β-hydroxy-19-norandrost-4-en-3-one], the “Active” value in data set [1] was “No”.
